Laboratory results from US20110123483A1, “HMGB1 FOR CANCER TREATMENT” (DEUTSCHES KREBSFORSCHUNGSZENTRUM, priority 2009, published 2011).

Tests used:
mitochondrial DNA = test: Dot blot analysis of mitochondrial DNA; type: cell-based, human; conditions: 24 h (FIG. 11A)
Experimental: Subcellular fractionation was performed as described below. The DNA of the resulting mitochondrial suspension was purified by a modified method described in Almeida et al. (Almeida et al., 2006). Briefly, contaminating nuclear DNA was precipitated by lysis of the mitochondria in a buffer of 50 mM glucose, 1.5 mM EDTA, 25 mM Tris-HCl, pH 7.4 with 20% SDS and 3 M K-acetate. After centrifugation (10 min, 4° C., 10.000×g) the supernatant was digested with 20 mg/ml proteinase K for 1 h at 37° C. and mtDNA was extracted twice with phenol-chloroform and one additional time with chloroform, followed by precipitation of mtDNA from the aqueous phase by adding two volumes of isopropanol. The pellet was washed with 80% ethanol at −20° C. After drying the mtDNA was solved in TE-buffer (10 mM Tris-HCl, pH 7.4, 1 mM EDTA, pH 8.0). After treatment of the samples with 100 μg/ml ribonuclease A (RNAse A) for 1 h at 37° C., the phenol-chloroform extraction steps were repeated and mtDNA was precipitated by adding 2 volumes of 100% ethanol and 1/10 volume 5 M NaCl at −20° C. overnight. After a centrifugation step for 20 min at 4° C. with 13,000 rpm and washing the pellet 2× with 80% ethanol, followed by drying, the pellet was solved in ddH2O. The purified DNA was digested overnight with BamHI and loaded on a 0.5% agarose gel. […] Labeling efficiency was determined as described in the kit. […]

NCH421 K cells = test: Propidiumiodide (PI) uptake by FACS analysis; type: cell-based; conditions: 80 nM or 600 nM (FIG. 12C)
[1] = test system: NCH421 K glioblastoma stem-cell-like cells; test: Cell morphology / spheroid cell aggregates; type: cell-based; conditions: FIG. 12B
U251MG cells = test: Megamitochondria formation, COX IV immunofluorescence and electron microscopy; type: cell-based, human
Experimental: U251MG cells were plated onto 8 well chamber-slides (Nunc, Wiesbaden, Germany) or grown confluently in 6 cm culture dishes containing round glass cover plates. For some samples, the cells were stained with the fluorescent dye MitoTracker Red CMXRos (50 nM, Molecular Probes, Invitrogen, Karlsruhe, Germany) for 30 min at 37° C. 24 h after seeding, the cells were fixed for 15 min with 2% paraformaldehyde solution or pre-cooled 100% methanol (on ice), washed 3× with PBS, permeabilized on ice with PBS containing 0.2% TritonX-100 and 1% fetal calf serum for 5 min and washed again three times with PBS containing 1% or 5% FCS. After blocking with PBS containing 1% or 5% FCS at room temperature for 60 min, permeabilized cells were incubated with monoclonal rabbit fluoro-conjugated anti-COX IV antibody (1:10, 3E11, Alexa Fluor 488 conjugate, Cell Signaling) or monoclonal mouse anti-polyhis-tag antibody (1:1000, R&D Systems) for 30 min at 4° C. and then washed three times with PBS with 1% or 5% FCS. In case the primary antibody was unconjugated to a fluorescent dye, goat anti-mouse or anti-rabbit secondary antibody Alexa Fluor® 488 or […] (1:200, Invitrogen GmbH, Karlsruhe, Germany) together with 1 μg/ml 4′,6-Diamidino-2-phenylindol (DAPI) was added for 30 min at 4° C. in a dark chamber. After washing three times with PBS with 1% or 5% FCS, cells were covered with cover slips. Photomicrographs were taken using a Olympus VANOX-T (AH-2) fluorescence microscope with immersion oil, ne 23=1.518 and the Soft Imaging System AnalysisB software (Leica Microsystems, Wetzlar, Germany) or on a confocal microscope (Leica SP2).
Cells were fixed in situ with 2.3% glutaraldehyde in 50 mM sodium cacodylat (pH 7.2) for 30 min at 4° C., scraped from the plates, collected by low-speed centrifugation at 200×g for 10 min at 4° C. and successively stained with 2% osmium tetroxide and 0.5% uranyl acetate. After dehydration and embedding in Epru the probes were processed for ultrathin section. Micrographs were taken with a Zeiss EM-10A electron microscope at 80 kV. The magnification indicator was routinely controlled by the use of a grating replica.

Question: What does the source list for “rhHMGB1: recombinant human High Mobility Group B1 protein (Sigma Aldrich)”?
Answer: mitochondrial DNA content (mitochondrial DNA): substantial and rapid depletion of mtDNA; Propidiumiodide (PI) uptake compared to untreated control (NCH421 K cells): evidently increased; anti-proliferative effect, spheroid cell aggregates [1]: clearly smaller and fewer spheroid cell aggregates; formation of megamitochondria, COX IV immunofluorescence (U251MG cells; FIG. 8C): generation of extremely enlarged spherical mitochondria; autophagosomes or rupture of the outer cell membrane, electron microscopy (U251MG cells; FIG. 10): not observed; number and size of megamitochondria, electron microscopy (U251MG cells; FIG. 10): increased in a time- and concentration-dependent manner; typical morphological features of apoptosis (membrane blebbing, apoptotic bodies, chromatin condensation) (U251MG cells; after rhHMGB1 treatment): could not be detected
